How the values were obtained:
ULK1 kinase = molecular target: T1, ULK1 kinase (Homo sapiens, UniProt O75385, E37A/K38A); experiment: Biochemical assay for ULK1.3 (coupled pyruvate kinase/lactate dehydrogenase assay, peptide substrate); conditions: 0.1 nM ULK1 (residues 1-283), 1 mM ATP
T1 construct: purchased Beryllium
T1 sequence (O75385 1-283 E37A/K38A): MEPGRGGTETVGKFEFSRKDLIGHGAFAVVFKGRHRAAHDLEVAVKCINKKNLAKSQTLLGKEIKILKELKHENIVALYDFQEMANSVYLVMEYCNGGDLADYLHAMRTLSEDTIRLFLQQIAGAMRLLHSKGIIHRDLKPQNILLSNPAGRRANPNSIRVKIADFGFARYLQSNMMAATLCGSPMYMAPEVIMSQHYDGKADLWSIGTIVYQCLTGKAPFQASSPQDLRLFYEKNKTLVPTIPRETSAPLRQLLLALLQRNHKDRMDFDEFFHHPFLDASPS
Summary of the method: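 ULK1.3 activity was followed by continuous decrease in 340 nm absorbance over 6 h at 30 °C with 1% DMSO final. Rates were taken from the 2–3 h window and converted to percent inhibition against no-compound and known-inhibitor controls. IC50 values came from curve fitting.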

ULK kinase [1] = experiment: pATG13 levels of mutant KRas A549 cells after treatment with ULK inhibitors in combination with trametinib (ELISA); type: cell-based, human; conditions: A549 (KRAS mutant) lung cancer cells, 250 nM trametinib, overnight, pS318-ATG13
Summary of the method: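 Lysates with phosphatase/protease inhibitors assayed by pATG13 ELISA, A450 minus A540 background and blank-corrected. % ATG13 phosphorylation versus DMSO controls fitted to IC50.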

ULK kinase [2] = experiment: pATG13 levels of mutant KRas MiaPaCa-2 cells after treatment with ULK inhibitors in combination with trametinib (ELISA); type: cell-based, human; conditions: MiaPaCa-2 pancreatic cancer cells, 250 nM trametinib, overnight, pS318-ATG13
Summary of the method: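 MiaPaCa-2 cells in DMEM with 10% FBS and 2.5% horse serum were pretreated with trametinib or DMSO, then given a test-compound dose response overnight at 37° C. Lysates were assayed for phospho-ATG13 by ELISA (A450 minus A540 background, blank-corrected). % phosphorylation was calculated relative to controls and fitted to IC50.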

ULK kinase [3] = experiment: pATG13 levels of mutant KRas HCT-116 cells after treatment with ULK inhibitors in combination with trametinib (ELISA); type: cell-based, human; conditions: HCT-116 colon cancer cells, 250 nM trametinib, overnight, pS318-ATG13
Procedure: The following day, 10 μL of media containing trametinib or DMSO as a control was added to wells. […] A dose response of a test compound (0.6 μL per well) was added. DMSO (0.6 μL) was added to control wells. The plate was briefly shaken to mix wells and then incubated at 37° C. overnight. The next day, the media was aspirated and cells were washed with Dulbecco's Phosphate Buffered Saline (Gibco). Cells were lysed using MPER lysis buffer (Pierce, Rockford, Ill.) containing Halt Phosphatase and Protease Inhibitors (Pierce, Rockford, Ill.) and Phosphatase inhibitor cocktail 2 (Sigma, St. Louis, Mo.) at 4° C. for 10 minutes with shaking.
(§1) Plate wells were washed with ELISA wash buffer. Cell lysate was added to wells and incubated at room temperature for 2 hours. Plate wells were washed with ELISA wash buffer. […] Plate wells were washed with ELISA wash buffer. […] Plate wells were washed with ELISA wash buffer. […] The reaction was stopped with 2N Sulfuric Acid. The plate was analyzed at on a plate reader measuring absorbance at 450 nm and 540 nm (background). Signal was calculated by first subtracting the background absorbance at 540 nm from the absorbance at 450 nm for each well. Next, the background corrected absorbance at 450 nm from blank wells was subtracted from test wells. Data was compared to control wells to determine % ATG13 phosphorylation. GraphPad Prism was used to calculate IC50 values.

ULK kinase [4] = experiment: pATG13 levels of mutant HRas T24 cells after treatment with ULK inhibitors in combination with trametinib (ELISA); type: cell-based, human; conditions: T24 urinary bladder cancer cells (mutant HRas), 250 nM trametinib, overnight, pS318-ATG13
Procedure: T24 human urinary bladder cancer cells (25000 cells/well) were added to a 96-well tissue-culture treated plate in 100 μL of pre-warmed DMEM medium supplemented with 10% characterized fetal bovine serum (Invitrogen, Carlsbad, Calif.), 100 units/mL penicillin G, and 100 μg/mL streptomycin and allowed to grow overnight at 37° C., 5% CO2, and 95% humidity. The following day, 100 μL of media containing trametinib or DMSO as a control was added to wells. […] A dose response of a test compound (0.5 μL per well) was added. DMSO (0.5 μL) was added to control wells. The plate was briefly shaken to mix wells and then incubated at 37° C. overnight. The next day, the media was aspirated and cells were washed with Dulbecco's Phosphate Buffered Saline (Gibco). Cells were lysed using MPER lysis buffer (Pierce, Rockford, Ill.) containing Halt Phosphatase and Protease Inhibitors (Pierce, Rockford, Ill.) and Phosphatase inhibitor cocktail 2 (Sigma, St. Louis, Mo.) at 4° C. for 10 minutes with shaking.
as §1

IC50 (ULK1 kinase): 0.001 to 0.025 µM | IC50 (ULK kinase [1]): 0.01 to 0.1 µM | IC50 (ULK kinase [2]): 0.01 to 0.1 µM | IC50 (ULK kinase [3]): 0.01 to 0.1 µM | IC50 (ULK kinase [4]): 0.1 to 0.3 µM
Structure (SMILES): O=C1CCCCN1CCCNc1nc(Nc2ccc(N3CCNCC3)cc2C2CC2)ncc1C(F)(F)F [Example 34, 1-(3-((2-((2-cyclopropyl-4-(piperazin-1-yl)phenyl)amino)-5-(trifluoromethyl)pyrimidin-4-yl)amino)propyl)piperidin-2-one]

Source: patent US11530206B2, “Phenylaminopyrimidine amide autophagy inhibitors and methods of use thereof” (Deciphera Pharmaceuticals, LLC, priority 2019, dated 2022)
